Our source for the IC50 values is article PMC4232042 (Drug Design, Development and Therapy, 2014).

This test concerns the target Kv1.5 (Homo sapiens, UniProt P22460). The test is described as follows: whole-cell patch clamp in HEK […] cells stably expressing Kv1.[…]. In kind it is cell-based. Background: In patch-clamp work, channel activity is measured electrically.

Sequence of Kv1.5 (P22460 whole entry): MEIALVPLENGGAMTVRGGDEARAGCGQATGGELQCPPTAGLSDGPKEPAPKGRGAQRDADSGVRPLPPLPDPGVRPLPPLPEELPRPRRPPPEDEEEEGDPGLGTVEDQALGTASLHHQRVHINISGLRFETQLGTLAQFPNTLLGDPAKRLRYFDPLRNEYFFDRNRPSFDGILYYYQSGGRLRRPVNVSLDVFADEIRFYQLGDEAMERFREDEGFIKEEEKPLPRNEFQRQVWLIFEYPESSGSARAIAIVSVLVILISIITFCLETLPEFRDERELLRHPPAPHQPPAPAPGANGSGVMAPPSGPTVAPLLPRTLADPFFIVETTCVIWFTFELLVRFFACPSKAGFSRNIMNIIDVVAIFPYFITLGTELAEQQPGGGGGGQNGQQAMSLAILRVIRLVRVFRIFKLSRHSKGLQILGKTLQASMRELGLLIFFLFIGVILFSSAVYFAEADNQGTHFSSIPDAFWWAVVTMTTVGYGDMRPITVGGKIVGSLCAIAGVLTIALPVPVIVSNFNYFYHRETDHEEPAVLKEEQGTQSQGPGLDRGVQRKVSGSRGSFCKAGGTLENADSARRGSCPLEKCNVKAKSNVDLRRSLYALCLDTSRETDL

As a reminder, the IC50 is the concentration that inhibits the measured activity by half. Read a low IC50 as greater potency. In the case of `Cc1ncc2n1-c1ccc(Cl)cc1C(c1ccccc1F)=NC2` [midazolam], 17 ± 4.2 µM corresponded to half-maximal inhibition (IC50).
